Measurements taken from patent US8563553B2, “Compounds and compositions as protein kinase inhibitors” (Novartis AG, priority 2009, dated 2013).
pIC50: −log10 of the molar value.

Biological target: b-Raf(V600E) (Homo sapiens (Human), UniProt P15056, V600E)
Test: Raf/Mek Amplified Luminescence Proximity Homogeneous Assay (Alpha Screen)
Format: biochemical
Details: b-Raf(V600E) approximately 4 pM; biotinylated Mek, kinase dead approximately 10 nM; ATP 10 μM; pre-incubation 60 minutes; reaction 3 hours at room temperature; read-out: mut-B-RAF IC50
Procedure: Raf/Mek Amplified Luminescence Proximity Homogeneous Assay
Assay buffer: 50 mM Tris, pH 7.5, 15 mM MgCl2, 0.01% Bovine Serum Albumin (BSA), 1 mM dithiothreitol (DTT) Stop buffer: 60 mM ethylenediaminetetraacetic acid (EDTA), 0.01% Tween® 20 Bead buffer: 50 mM Tris, pH 7.5, 0.01% Tween® 20 […]
biotinylated Mek, kinase dead
Alpha Screen detection kit (available from PerkinElmer™, #6760617R)
Anti phospho-MEK1/2 (available from Cell Signaling Technology, Inc. #9121) 384 well assay plates (White Greiner® plates, #781207) […]
biotinylated Mek, Kinase dead approximately 10 nM
Pre-incubation time with compounds 60 minutes at room temperature
Reaction time 1 or 3 hours at room temperature
Raf and biotinylated Mek, kinase dead, were combined at 2× final concentrations in assay buffer (50 mM Tris, pH 7.5, 15 mM MgCl2, 0.01% BSA and 1 mM DTT) and dispensed 10 μl per well in assay plates (Greiner white 384 well assay plates #781207) containing 0.5 μl of 40× of a raf kinase inhibitor test compound diluted in 100% DMSO. The plate was incubated for 60 minutes at room temperature.
The Raf kinase activity reaction was started by the addition of 10 μL per well of 2×ATP diluted in assay buffer. […] Phosphorylated product was measured using a rabbit anti-p-MEK (Cell Signaling, #9121) antibody and the Alpha Screen IgG (ProteinA) detection Kit (PerkinElmer #6760617R), by the addition of 30 μL to the well of a mixture of the antibody (1:2000 dilution) and detection beads (1:2000 dilution of both beads) in bead buffer (50 mM Tris, pH 7.5, 0.01% Tween20). The additions were carried out under dark conditions to protect the detection beads from light. A lid was placed on top of the plate and incubated for 1 hour at room temperature, then the luminescence was read on a PerkinElmer Envision instrument. The concentration of each compound for 50% inhibition (IC50) was calculated by non-linear regression using XL Fit data analysis software.

Sequence of b-Raf(V600E) (P15056 whole entry V600E): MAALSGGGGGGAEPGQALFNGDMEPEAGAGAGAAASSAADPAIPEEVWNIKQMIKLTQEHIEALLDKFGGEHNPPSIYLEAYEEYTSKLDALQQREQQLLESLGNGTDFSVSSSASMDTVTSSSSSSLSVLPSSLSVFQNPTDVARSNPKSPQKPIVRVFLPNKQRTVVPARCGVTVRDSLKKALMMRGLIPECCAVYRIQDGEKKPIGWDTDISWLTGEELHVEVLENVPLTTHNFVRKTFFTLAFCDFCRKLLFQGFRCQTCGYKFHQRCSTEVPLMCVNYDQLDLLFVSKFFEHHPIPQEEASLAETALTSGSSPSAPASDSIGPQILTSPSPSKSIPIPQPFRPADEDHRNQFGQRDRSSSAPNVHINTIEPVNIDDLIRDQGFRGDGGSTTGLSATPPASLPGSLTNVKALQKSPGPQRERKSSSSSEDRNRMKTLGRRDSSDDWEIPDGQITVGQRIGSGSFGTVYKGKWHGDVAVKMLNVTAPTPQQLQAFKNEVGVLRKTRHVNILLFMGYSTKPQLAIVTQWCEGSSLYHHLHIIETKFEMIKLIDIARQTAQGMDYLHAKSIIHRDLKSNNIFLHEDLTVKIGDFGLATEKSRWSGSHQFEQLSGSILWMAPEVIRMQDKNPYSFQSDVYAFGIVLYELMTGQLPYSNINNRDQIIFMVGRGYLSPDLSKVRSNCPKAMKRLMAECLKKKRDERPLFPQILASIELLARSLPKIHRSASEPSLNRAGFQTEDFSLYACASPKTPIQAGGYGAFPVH

Compound	pIC50
CCCS(=O)(=O)Nc1cc(Cl)cc(-c2[nH]c(C(C)(C)C)nc2-c2ccnc(NC[C@H](C)NC(=O)OC)n2)c1F [Example 4F, (S)-Methyl 1-(4-(2-tert-butyl-5-(5-chloro-2-fluoro-3-(propylsulfonamido)phenyl)-1H-imidazol-4-yl)pyrimidin-2-ylamino)propan-2-ylcarbamate]	9.28
CC(C#N)CNc1nccc(-c2[nH]c(C3CC3)nc2-c2cccc(NS(C)(=O)=O)c2Cl)n1 (stereo not shown) [Example 1AK, N-(2-Chloro-3-(5-(2-(2-cyanopropylamino)pyrimidin-4-yl)-2-cyclopropyl-1H-imidazol-4-yl)phenyl)methanesulfonamide]	7.96
COC(=O)N[C@@H](C)CNc1nccc(-c2nc(C3CC3)[nH]c2-c2cc(Cl)cc(NS(=O)(=O)CCC(F)(F)F)c2F)n1 [Example 1AA, (S)-Methyl 1-(4-(5-(5-chloro-2-fluoro-3-(3,3,3-trifluoropropylsulfonamido)phenyl)-2-cyclopropyl-1H-imidazol-4-yl)pyrimidin-2-ylamino)propan-2-ylcarbamate]	9.22
CC(C)(C)c1nc(-c2cc(Cl)cc(NS(=O)(=O)c3c(F)cccc3F)c2F)c(-c2ccnc(N)n2)[nH]1 [Example 1BE, N-(3-(5-(2-Aminopyrimidin-4-yl)-2-tert-butyl-1H-imidazol-4-yl)-5-chloro-2-fluorophenyl)-2,6-difluorobenzenesulfonamide]	9.89
COC(=O)N[C@@H](C)CNc1nccc(-c2[nH]c(C(C)(C)C)nc2-c2cc(F)cc(NS(C)(=O)=O)c2Cl)n1 [Example 1AG, (S)-Methyl 1-(4-(2-tert-butyl-4-(2-chloro-5-fluoro-3-(methylsulfonamido)phenyl)-1H-imidazol-5-yl)pyrimidin-2-ylamino)propan-2-ylcarbamate]	9.00
CCNc1nccc(-c2[nH]c(C3CC3)nc2-c2cc(F)cc(NS(C)(=O)=O)c2Cl)n1 [Example 1AQ, N-(2-Chloro-3-(2-cyclopropyl-5-(2-(ethylamino)pyrimidin-4-yl)-1H-imidazol-4-yl)-5-fluorophenyl)methanesulfonamide]	7.96
COC(=O)N[C@@H](C)CNc1nccc(-c2[nH]c(C(C)(C)C)nc2-c2cccc(NS(=O)(=O)C3CC3)c2F)n1 [Example 2B, (S)-Methyl 1-(4-(2-tert-butyl-4-(3-(cyclopropanesulfonamido)-2-fluorophenyl)-1H-imidazol-5-yl)pyrimidin-2-ylamino)propan-2-ylcarbamate]	9.57
CS(=O)(=O)Nc1cc(Cl)cc(-c2nc(C3CC3)[nH]c2-c2ccnc(N)n2)c1F [Example 1BG, N-(3-(5-(2-Aminopyrimidin-4-yl)-2-cyclopropyl-1H-imidazol-4-yl)-5-chloro-2-fluorophenyl)methanesulfonamide]	8.40
COC(=O)N[C@@H](C)CNc1nccc(-c2[nH]c(C3CCC3)nc2-c2cc(Cl)cc(NS(C)(=O)=O)c2F)n1 [Example 1BT, (S)-Methyl 1-(4-(4-(5-chloro-2-fluoro-3-(methylsulfonamido)phenyl)-2-cyclobutyl-1H-imidazol-5-yl)pyrimidin-2-ylamino)propan-2-ylcarbamate]	9.64
COC(=O)N[C@@H](C)CNc1nccc(-c2nc(C3(C)CC3)[nH]c2-c2cc(C)cc(NS(C)(=O)=O)c2F)n1 [Example 1AM, (S)-Methyl 1-(4-(5-(2-fluoro-5-methyl-3-(methylsulfonamido)phenyl)-2-(1-methylcyclopropyl)-1H-imidazol-4-yl)pyrimidin-2-ylamino)propan-2-ylcarbamate]	9.00
CCS(=O)(=O)Nc1cc(Cl)cc(-c2nc(C(C)(C)C)[nH]c2-c2ccnc(NC[C@H](C)NC(=O)OC)n2)c1F [Example 1AJ, (S)-Methyl 1-(4-(2-tert-butyl-4-(5-chloro-3-(ethylsulfonamido)-2-fluorophenyl)-1H-imidazol-5-yl)pyrimidin-2-ylamino)propan-2-ylcarbamate]	9.34
COC(=O)N[C@@H](C)CNc1nccc(-c2[nH]c(C3CC3)nc2-c2cc(C)cc(NS(C)(=O)=O)c2F)n1 [Example 1B, (S)-methyl 1-(4-(2-cyclopropyl-4-(2-fluoro-5-methyl-3-(methylsulfonamido)phenyl)-1H-imidazol-5-yl)pyrimidin-2-ylamino)propan-2-ylcarbamate]	9.70
O=S(=O)(Nc1cc(F)cc(-c2nc(C3CC3)[nH]c2-c2ccncn2)c1Cl)c1c(F)cccc1F [Example 2I, N-(2-Chloro-3-(2-cyclopropyl-5-(pyrimidin-4-yl)-1H-imidazol-4-yl)-5-fluorophenyl)-2,6-difluorobenzenesulfonamide]	9.00
CCCS(=O)(=O)Nc1cccc(-c2nc(C3CC3)[nH]c2-c2ccnc(NC[C@H](C)NC(=O)OC)n2)c1 [Example 4J, (S)-Methyl 1-(4-(2-cyclopropyl-4-(3-(propylsulfonamido)phenyl)-1H-imidazol-5-yl)pyrimidin-2-ylamino)propan-2-ylcarbamate]	9.00
CCCS(=O)(=O)Nc1cccc(-c2nc(C3CC3)[nH]c2-c2ccnc(NC[C@H](C)NC(=O)OC)n2)c1F [Example 4C, (S)-Methyl 1-(4-(2-cyclopropyl-4-(2-fluoro-3-(propylsulfonamido)phenyl)-1H-imidazol-5-yl)pyrimidin-2-ylamino)propan-2-ylcarbamate]	9.80
CC(C)Nc1nccc(-c2[nH]c(C3CC3)nc2-c2cc(F)cc(NS(C)(=O)=O)c2Cl)n1 [Example 1AT, N-(2-Chloro-3-(2-cyclopropyl-5-(2-(isopropylamino)pyrimidin-4-yl)-1H-imidazol-4-yl)-5-fluorophenyl)methanesulfonamide]	7.60
Nc1nccc(-c2[nH]c(C3CC3)nc2-c2cc(Cl)cc(NS(=O)(=O)c3c(F)cccc3F)c2F)n1 [Example 1BF, N-(3-(5-(2-Aminopyrimidin-4-yl)-2-cyclopropyl-1H-imidazol-4-yl)-5-chloro-2-fluorophenyl)-2,6-difluorobenzenesulfonamide]	10.00

The next lines start with the values.

pIC50	Compound
9.40	COC(=O)N[C@@H](C)CNc1nccc(-c2[nH]c(C3CC3)nc2-c2cc(F)cc(NS(C)(=O)=O)c2Cl)n1 [Example 5A, (S)-methyl 1-(4-(4-(2-chloro-5-fluoro-3-(methylsulfonamido)phenyl)-2-cyclopropyl-1H-imidazol-5-yl)pyrimidin-2-ylamino)propan-2-ylcarbamate]
9.26	COC(=O)N[C@@H](C)CNc1nccc(-c2[nH]c(C3CC3)nc2-c2cccc(NS(C)(=O)=O)c2F)n1 [Example 1U, (S)-Methyl 1-(4-(2-cyclopropyl-4-(2-fluoro-3-(methylsulfonamido)phenyl)-1H-imidazol-5-yl)pyrimidin-2-ylamino)propan-2-ylcarbamate]
9.64	CC1(c2nc(-c3cc(F)cc(NS(C)(=O)=O)c3Cl)c(-c3ccnc(NCCC#N)n3)[nH]2)CC1 [Example 1AY, N-(2-Chloro-3-(5-(2-(2-cyanoethylamino)pyrimidin-4-yl)-2-(1-methylcyclopropyl)-1H-imidazol-4-yl)-5-fluorophenyl)methanesulfonamide]
9.11	COC(=O)N[C@@H](C)CNc1nccc(-c2[nH]c(C(C)(C)C)nc2-c2cccc(NS(=O)(=O)C(C)C)c2F)n1 [Example 2D]
9.30	CCC(C)S(=O)(=O)Nc1cc(Cl)cc(-c2nc(C(C)(C)C)[nH]c2-c2ccnc(NC[C@H](C)NC(=O)OC)n2)c1 (stereo partly drawn) [Example 1H, Methyl (2S)-1-(4-(2-tert-butyl-4-(3-chloro-5-(1-methylpropylsulfonamido)phenyl)-1H-imidazol-5-yl)pyrimidin-2-ylamino)propan-2-ylcarbamate]
10.00	CCS(=O)(=O)Nc1cc(Cl)cc(-c2nc(C(C)(C)C)[nH]c2-c2ccnc(NC[C@H](C)NC(=O)OC)n2)c1 [Example 1I, (S)-Methyl 1-(4-(2-tert-butyl-4-(3-chloro-5-(ethylsulfonamido)phenyl)-1H-imidazol-5-yl)pyrimidin-2-ylamino)propan-2-ylcarbamate]
9.00	COC(=O)N[C@@H](C)CNc1nccc(-c2[nH]c(C3CCC3)nc2-c2cc(F)cc(NS(C)(=O)=O)c2Cl)n1 [Example 1BU, (S)-Methyl 1-(4-(4-(2-chloro-5-fluoro-3-(methylsulfonamido)phenyl)-2-cyclobutyl-1H-imidazol-5-yl)pyrimidin-2-ylamino)propan-2-ylcarbamate]
8.15	COC(=O)N[C@@H](C)CNc1nccc(-c2[nH]c(C3CC3)nc2-c2cc(Cl)cc(NS(=O)(=O)c3ccc(C(F)(F)F)cc3)c2F)n1 [Example 1BN, (S)-Methyl 1-(4-(4-(5-chloro-2-fluoro-3-(4-(trifluoromethyl)phenylsulfonamido)phenyl)-2-cyclopropyl-1H-imidazol-5-yl)pyrimidin-2-ylamino)propan-2-ylcarbamate]
